Measured values as given in US20250206721A1, “Prostaglandin Receptor EP2 Antagonists, Derivatives, and Uses Related Thereto” (Emory University, priority 2019, published 2025).
In brackets after ≈: the same amount, converted by molar mass. Marks after values point to notes of the source that are not given here.

What was measured:
[1] = molecular target: T1, human EP2 receptor (Homo sapiens, UniProt P43116); assay: Cell-based cAMP TR-FRET assay, Schild KB on EP2; conditions: for Kb / EP2 KB: Schild KB, agonist PGE2, antagonist concentration 1 μM, C6G cells expressing human EP2; for fold less EP2 potency in comparison to 2a: comparator 2a; for fold less potent than equivalent derivative: 11a vs 8b, 11b vs 8g, 11c vs 8f
T1 construct: expressed in transfected cells
T1 sequence (P43116 whole entry): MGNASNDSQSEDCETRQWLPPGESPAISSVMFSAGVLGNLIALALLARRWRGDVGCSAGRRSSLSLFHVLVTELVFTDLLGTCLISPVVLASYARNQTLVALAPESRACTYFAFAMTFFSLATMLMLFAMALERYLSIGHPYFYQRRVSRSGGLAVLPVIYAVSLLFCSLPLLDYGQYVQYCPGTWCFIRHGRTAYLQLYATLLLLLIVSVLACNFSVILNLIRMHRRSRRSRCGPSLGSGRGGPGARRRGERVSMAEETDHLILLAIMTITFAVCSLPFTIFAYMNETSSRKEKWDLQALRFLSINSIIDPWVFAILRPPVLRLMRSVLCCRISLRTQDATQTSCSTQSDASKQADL

[2] = Kinetic aqueous solubility in PBS by nephelometry; conditions: for Aqueous Solubility: PBS buffer (pH 7.4) with 1% DMSO, nephelometry
[3] = pH 2
[4] = in vivo; conditions: C57BL/6, mouse, ip, 10 mg/kg
[5] = molecular target: human EP4 receptor (Homo sapiens, UniProt P35408); assay: Cell-based cAMP TR-FRET assay on EP4 (agonist PGE2); conditions: selectivity index EP4 KB/EP2 KB, fold
Chain of human EP4 receptor (P35408 whole entry): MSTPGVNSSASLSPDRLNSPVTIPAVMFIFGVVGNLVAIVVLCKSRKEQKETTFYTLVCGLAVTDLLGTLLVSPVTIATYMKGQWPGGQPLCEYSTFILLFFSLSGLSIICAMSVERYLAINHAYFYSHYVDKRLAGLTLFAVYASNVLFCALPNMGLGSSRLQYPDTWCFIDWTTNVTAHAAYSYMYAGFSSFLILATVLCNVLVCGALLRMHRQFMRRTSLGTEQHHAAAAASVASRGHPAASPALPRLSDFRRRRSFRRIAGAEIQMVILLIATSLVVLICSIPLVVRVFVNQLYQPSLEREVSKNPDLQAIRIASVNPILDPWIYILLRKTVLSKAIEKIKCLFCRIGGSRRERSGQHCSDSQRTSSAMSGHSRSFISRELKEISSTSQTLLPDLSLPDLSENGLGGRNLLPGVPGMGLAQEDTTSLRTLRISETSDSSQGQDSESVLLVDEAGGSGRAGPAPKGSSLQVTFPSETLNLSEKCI

[6] = molecular target: human IP receptor (Homo sapiens, UniProt P43119); assay: Cell-based cAMP TR-FRET assay on IP (agonist iloprost); conditions: selectivity index IP KB/EP2 KB, fold
Chain of human IP receptor (P43119 whole entry): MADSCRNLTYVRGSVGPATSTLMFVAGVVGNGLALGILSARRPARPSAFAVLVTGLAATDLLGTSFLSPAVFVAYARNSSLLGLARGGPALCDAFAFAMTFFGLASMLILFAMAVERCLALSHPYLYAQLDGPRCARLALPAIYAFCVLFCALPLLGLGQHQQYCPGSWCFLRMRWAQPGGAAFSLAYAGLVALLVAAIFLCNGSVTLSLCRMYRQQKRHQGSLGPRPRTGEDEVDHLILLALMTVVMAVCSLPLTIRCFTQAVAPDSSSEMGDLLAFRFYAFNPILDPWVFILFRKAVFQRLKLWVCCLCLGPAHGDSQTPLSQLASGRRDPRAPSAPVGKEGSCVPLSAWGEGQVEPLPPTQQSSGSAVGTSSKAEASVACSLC

| Structure (SMILES) | Aqueous Solubility [2] [µM] | Solubility in SGF [3] | also measured |
| --- | --- | --- | --- |
| Cc1[nH]c2ccccc2c1CCNC(=O)c1ccc(N2CCOCC2)nc1 [Compound 2b, N-(2-(2-Methyl-1H-indol-3-yl)ethyl)-6-morpholinonicotinamide] | 206 | – | Kb [1]: 118 nM; fold less EP2 potency in comparison to 2a [1]: 4 fold; fold increased aqueous solubility ([2]; comparator 2a): 3 fold |
| Cc1[nH]c2ccccc2c1CCNC(=O)c1ccc(-c2ccccc2)nc1 [Compound 8a, N-(2-(2-Methyl-1H-indol-3-yl)ethyl)-6-phenylnicotinamide] | 25 | >100 µM | – |
| COc1cccc(-c2ccc(C(=O)NCCc3c(C)[nH]c4ccccc34)cn2)c1 [Compound 8b, 6-(3-Methoxyphenyl)-N-(2-(2-methyl-1H-indol-3-yl)ethyl)nicotinamide] | 13 | >100 µM | – |
| COc1ccccc1-c1ccc(C(=O)NCCc2c(C)[nH]c3ccccc23)cn1 [Compound 8c, 6-(2-Methoxyphenyl)-N-(2-(2-methyl-1H-indol-3-yl)ethyl)nicotinamide] | 28 | >100 µM | half-life [4]: < 1 h |
| Cc1[nH]c2ccccc2c1CCNC(=O)c1ccc(-c2ccccc2O)nc1 [Compound 8d, 6-(2-Hydroxyphenyl)-N-(2-(2-methyl-1H-indol-3-yl)ethyl)nicotinamide] | 8 | 50^c μM | – |
| Cc1[nH]c2ccccc2c1CCNC(=O)c1ccc(-c2ccccc2F)nc1 [Compound 8e, 6-(2-Fluorophenyl)-N-(2-(2-methyl-1H-indol-3-yl)ethyl)nicotinamide] | 22 | >100 µM | fold less EP2 potency in comparison to 2a [1]: 2 fold; fold less EP2 potency in comparison to 8c ([1]; comparator 8c (14b vs. 14c or 8c)): 4 fold |
| CC(=O)Nc1ccc(-c2ccc(C(=O)NCCc3c(C)[nH]c4ccccc34)cn2)cc1 [Compound 8f, 6-(4-Acetamidophenyl)-N-(2-(2-methyl-1H-indol-3-yl)ethyl)nicotinamide] | 25 | >100 µM | – |
| COc1cc(OC)cc(-c2ccc(C(=O)NCCc3c(C)[nH]c4ccccc34)cn2)c1 [Compound 8g, 6-(3,5-Dimethoxyphenyl)-N-(2-(2-methyl-1H-indol-3-yl)ethyl)nicotinamide] | 12 | >100 µM | half-life [4]: < 1 h |
| COc1cccc(-c2ccc(C(=O)NCCc3c(C)[nH]c4ccccc34)nc2)c1 [Compound 11a, 5-(3-Methoxyphenyl)-N-(2-(2-methyl-1H-indol-3-yl)ethyl)picolinamide] | 14 | 14 µM (≈ 5.4 µg/mL) | fold less potent than equivalent derivative [1]: 4 fold |
| COc1cc(OC)cc(-c2ccc(C(=O)NCCc3c(C)[nH]c4ccccc34)nc2)c1 [Compound 11b, 5-(3,5-Dimethoxyphenyl)-N-(2-(2-methyl-1H-indol-3-yl)ethyl)picolinamide] | 10 | 10 µM (≈ 4.15 µg/mL) | fold less potent than equivalent derivative [1]: 11 fold |
| CC(=O)Nc1ccc(-c2ccc(C(=O)NCCc3c(C)[nH]c4ccccc34)nc2)cc1 [Compound 11c, 5-(4-Acetamidophenyl)-N-(2-(2-methyl-1H-indol-3-yl)ethyl)picolinamide] | 10 | 10 µM (≈ 4.12 µg/mL) | – |
| COc1ccccc1-c1ccc(C(=O)NCCc2c(C)[nH]c3ccccc23)cc1F [Compound 14b, 2-Fluoro-2′-methoxy-N-(2-(2-methyl-1H-indol-3-yl)ethyl)-[1,1′-biphenyl]-4-carboxamide] | 10 | 10^d μM | – |
| COc1ccccc1-c1ccc(C(=O)NCCc2c(C)[nH]c3ccccc23)cc1 [Compound 14c, 2′-Methoxy-N-(2-(2-methyl-1H-indol-3-yl)ethyl)-[1,1′-biphenyl]-4-carboxamide] | 5 | – | – |
| Cc1[nH]c2ccccc2c1CCNC(=O)c1cnc(Nc2cc(C(C)(C)C)ccn2)nc1 [Compound 20d, 2-((4-(tert-Butyl)pyridin-2-yl)amino)-N-(2-(2-methyl-1H-indol-3-yl)ethyl)pyrimidine-5-carboxamide] | 5 | – | – |
| Cc1cccc(Nc2ncc(C(=O)NCCc3c(C)[nH]c4ccccc34)cn2)n1 [Compound 20e, N-(2-(2-Methyl-1H-indol-3-yl)ethyl)-2-((6-methylpyridin-2-yl)amino)pyrimidine-5-carboxamide] | 25 | – | S.I (EP4/EP2) [5]: >1500; S.I (IP/EP2) [6]: >1500 |
| Cc1[nH]c2ccccc2c1CCNC(=O)c1cnc(Nc2cccc(C#N)n2)nc1 [Compound 20g, 2-((6-Cyanopyridin-2-yl)amino)-N-(2-(2-methyl-1H-indol-3-yl)ethyl)pyrimidine-5-carboxamide] | 13 | – | – |
| Cc1[nH]c2ccccc2c1CCNC(=O)c1cnc(Nc2cccc(O)n2)nc1 [Compound 20i, 2-((6-Hydroxypyridin-2-yl)amino)-N-(2-(2-methyl-1H-indol-3-yl)ethyl)pyrimidine-5-carboxamide] | 10 | – | – |
| CC(=O)c1cccc(Nc2ncc(C(=O)NCCc3c(C)[nH]c4ccccc34)cn2)n1 [Compound 20j, 2-((6-Acetylpyridin-2-yl)amino)-N-(2-(2-methyl-1H-indol-3-yl)ethyl)pyrimidine-5-carboxamide] | 5 | – | – |
| CC(=O)c1ccc(Nc2ncc(C(=O)NCCc3c(C)[nH]c4ccccc34)cn2)nc1 [Compound 20l, 2-((5-Acetylpyridin-2-yl)amino)-N-(2-(2-methyl-1H-indol-3-yl)ethyl)pyrimidine-5-carboxamide] | – | – | Kb [1]: 166 nM; fold reduced EP2 potency in comparison to 20b ([1]; comparator 20b): 20 fold |
| CCC(C)(O)c1cccc(Nc2ncc(C(=O)NCCc3c(C)[nH]c4ccccc34)cn2)n1 (centres unmarked) [Compound 20m, 2-((6-(2-Hydroxybutan-2-yl)pyridin-2-yl)amino)-N-(2-(2-methyl-1H-indol-3-yl)ethyl) pyrimidine-5-carboxamide] | 6 | – | – |
| Cc1[nH]c2ccccc2c1CCNC(=O)c1cnc(Nc2cccc(C(C)(C)C)n2)nc1 [Compound 20n, 2-((6-(tert-Butyl)pyridin-2-yl)amino)-N-(2-(2-methyl-1H-indol-3-yl)ethyl)pyrimidine-5-carboxamide] | 25 | – | – |
| Cc1[nH]c2ccccc2c1CCNC(=O)c1cnc(Nc2ccncc2)nc1 [Compound 20p, N-(2-(2-Methyl-1H-indol-3-yl)ethyl)-2-(pyridin-4-ylamino)pyrimidine-5-carboxamide] | 38 | – | EP2 KB [1]: complete loss of potency |
| Cc1[nH]c2ccccc2c1CCNC(=O)c1cnc(Nc2cccnc2)nc1 [Compound 20q, N-(2-(2-Methyl-1H-indol-3-yl)ethyl)-2-(pyridin-3-ylamino)pyrimidine-5-carboxamide] | 17 | – | Kb [1]: 8.3 nM; S.I (EP4/EP2) [5]: >1200; S.I (IP/EP2) [6]: >1200 |
| Cc1ccc(Nc2ncc(C(=O)NCCc3c(C)[nH]c4ccccc34)cn2)c(C)n1 [Compound 20r, 2-((2,6-Dimethylpyridin-3-yl)amino)-N-(2-(2-methyl-1H-indol-3-yl)ethyl)pyrimidine-5-carboxamide] | 100 | – | fold reduced EP2 potency ([1]; 20f vs. 20c, 20n vs. 20e, comparator of 20g and 20r not stated): 10 fold; Kb [1]: 88.1 nM |
| Cc1cc(C)nc(Nc2ncc(C(=O)NCCc3c(C)[nH]c4ccc(F)cc34)cn2)c1 [Compound 24a, 2-((4,6-Dimethylpyridin-2-yl)amino)-N-(2-(5-fluoro-2-methyl-1H-indol-3-yl)ethyl)pyrimidine-5-carboxamide] | 5 | – | S.I (IP/EP2) [6]: 770 |
| Cc1cc(C)nc(Nc2ncc(C(=O)NCCc3c(C)[nH]c4ccc(Cl)cc34)cn2)c1 [Compound 24b, N-(2-(5-Chloro-2-methyl-1H-indol-3-yl)ethyl)-2-((4,6-dimethylpyridin-2-yl)amino)pyrimidine-5-carboxamide] | 20 | – | Kb [1]: 28.3 nM; S.I (EP4/EP2) [5]: >350; S.I (IP/EP2) [6]: >350 |
| COc1ccc2[nH]c(C)c(CCNC(=O)c3cnc(Nc4cc(C)cc(C)n4)nc3)c2c1 [Compound 24e, 2-((4,6-Dimethylpyridin-2-yl)amino)-N-(2-(5-methoxy-2-methyl-1H-indol-3-yl)ethyl)pyrimidine-5-carboxamide] | 20 | – | – |
| Cc1cc(C)nc(Nc2ncc(C(=O)NCCc3c(C(F)(F)F)[nH]c4ccccc34)cn2)c1 [Compound 24f, 2-((4,6-Dimethylpyridin-2-yl)amino)-N-(2-(2-(trifluoromethyl)-1H-indol-3-yl)ethyl)pyrimidine-5-carboxamide] | 45 | – | Kb [1]: 66 nM; fold reduced EP2 potency in comparison to 20o ([1]; comparator 20o): 8 fold |
| Cc1cc(C)nc(Nc2ncc(C(=O)NCCc3c(C)nn4ccccc34)cn2)c1 [Compound 24g, 2-((4,6-Dimethylpyridin-2-yl)amino)-N-(2-(2-methylpyrazolo[1,5-a]pyridin-3-yl)ethyl)pyrimidi-ne-5-carboxamide] | 70 | – | – |
| Cc1cc(C)nc(Nc2ncc(C(=O)NCC(=O)c3c(C)[nH]c4ccccc34)cn2)c1 [Compound 24h, 2-((4,6-Dimethylpyridin-2-yl)amino)-N-(2-(2-methyl-1H-indol-3-yl)-2-oxoethyl)pyrimidine-5-carboxamide] | – | – | EP2 KB [1]: eliminated the potency |
